Legend:
[1] = tested on: paddy rice plant (cultivar: Nihonbare); assay: Test Example 3: phytotoxicity test for transplanted paddy rice plant; type: in vivo; settings: dosage 1000 g/ha; transplanted rice, treated 5 days after transplantation; 21 days after treatment
Outline: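 Clay loam soil was placed in a 75 cm^2 plastic pot and flooded to a water depth of 5 cm. Two Nihonbare paddy rice plants at the two-leaf stage were transplanted 1 cm deep and grown in a hot house. After treatment, pots stayed in the hot house for 21 days, and phytotoxicity was then graded against an untreated control.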

bulrush [2] = assay: Test Example 1: herbicidal efficacy on rice paddy weeds pre-emergence; type: in vivo, Scirpus juncoides; settings: dosage 1000 g/ha, 21 days
[3] = tested on: transplanted paddy rice plant and Bulrush; assay: Test Example 5: selectivity between transplanted paddy rice plant and weeds; type: in vivo; settings: (highest dosage with no phytotoxicity to paddy rice)/(lowest dosage with effective level 4 on Bulrush); rice 3000-100 g/ha, Bulrush 300-10 g/ha; 21 days
Outline: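 Transplanted paddy rice was treated at 3000, 1000, 300 and 100 g/ha active ingredient for phytotoxicity, and post-emergence bulrush at 300, 100, 30 and 10 g/ha. Plants were kept in a hothouse for 21 days. Growth inhibition versus untreated control was scored 0–4 (0%, 1–39%, 40–69%, 70–89%, 90–100%).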

false pimpernel [4] = assay: Test Example 2: herbicidal efficacy on rice paddy weeds post-emergence; type: in vivo, Lindernia pyxidaria; settings: dosage 1000 g/ha; post-emergence, one leaf stage; 21 days after treatment
false pimpernel [5] = assay: Test Example 1: herbicidal efficacy on rice paddy weeds pre-emergence; type: in vivo, Lindernia pyxidaria; settings: dosage 1000 g/ha, 21 days
barnyard glass = assay: Test Example 2: herbicidal efficacy on rice paddy weeds post-emergence; type: in vivo, Echinochloa crus-galli; settings: dosage 1000 g/ha; post-emergence, one leaf stage; 21 days after treatment
Outline: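 Plastic pots of 75 cm^2 were filled with clay loam soil and sown with barnyard glass and bulrush seeds, then topped with 75 cm^3 soil containing false pimpernel seeds. The pots were flooded to 5 cm water depth and held in a hot house. Twenty-one days after treatment, herbicidal efficacy was graded against an untreated control.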

bulrush [6] = assay: Test Example 4: low dosage test for rice paddy weeds; type: in vivo, Scirpus juncoides; settings: 300 g/ha as an active ingredient; plants treated at the one leaf stage; 21 days after treatment; vs untreated control
Outline: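 Bulrush sown in clay loam pots, flooded to 5 cm water in a hot house, treated at the one-leaf stage with formulated compound at 300 g/ha. Efficacy scored 0–4 against untreated control 21 days after treatment (4 = 90–100%, 0 = 0% inhibition).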

bulrush [7] = assay: Test Example 2: herbicidal efficacy on rice paddy weeds post-emergence; type: in vivo, Scirpus juncoides; settings: dosage 1000 g/ha; post-emergence, one leaf stage; 21 days after treatment

SMILES | Phytotoxicity to paddy rice [1] | Bulrush pre (herbicidal efficacy grade) (bulrush [2]) | Selective Index [3] | False pimpernel post (herbicidal efficacy grade) (false pimpernel [4]) | False pimpernel pre (herbicidal efficacy grade) (false pimpernel [5]) | Burnyard grass post (herbicidal efficacy grade) (barnyard glass) | Herbicide effect to Bulrush (bulrush [6]) | Bulrush post (herbicidal efficacy grade) (bulrush [7])
CCOC(=O)N(c1ccccc1CN1CC(C)(CC(C)C)OC1=O)S(=O)(=O)C(F)(F)F (racemic) [1-125] | 1 (1%-39% of herbicidal efficacy or phytotoxicity) | 4 (90%-100% of herbicidal efficacy or phytotoxicity) | 10 | 4 (90%-100% of herbicidal efficacy or phytotoxicity) | 4 (90%-100% of herbicidal efficacy or phytotoxicity) | 4 (90%-100% of herbicidal efficacy or phytotoxicity) | 4 (90%-100% of herbicidal efficacy or phytotoxicity) | 4 (90%-100% of herbicidal efficacy or phytotoxicity)
CCCC1(C)CN(Cc2ccccc2N(C(=O)OC)S(=O)(=O)C(F)(F)F)C(=O)O1 (racemic) [1-126] | 2 (40%-69% of herbicidal efficacy or phytotoxicity) | 4 (90%-100% of herbicidal efficacy or phytotoxicity) | 10 | 4 (90%-100% of herbicidal efficacy or phytotoxicity) | 4 (90%-100% of herbicidal efficacy or phytotoxicity) | 4 (90%-100% of herbicidal efficacy or phytotoxicity) | 4 (90%-100% of herbicidal efficacy or phytotoxicity) | 4 (90%-100% of herbicidal efficacy or phytotoxicity)
CCCC1(C)CN(Cc2ccccc2N(C(=O)OCC)S(=O)(=O)C(F)(F)F)C(=O)O1 (racemic) [1-127] | 1 (1%-39% of herbicidal efficacy or phytotoxicity) | 4 (90%-100% of herbicidal efficacy or phytotoxicity) | 30 | 4 (90%-100% of herbicidal efficacy or phytotoxicity) | 4 (90%-100% of herbicidal efficacy or phytotoxicity) | 4 (90%-100% of herbicidal efficacy or phytotoxicity) | 4 (90%-100% of herbicidal efficacy or phytotoxicity) | 4 (90%-100% of herbicidal efficacy or phytotoxicity)
CC1COC(=O)N1Cc1ccccc1NS(=O)(=O)C(F)(F)F (centres unmarked) [1-3] | 4 (90%-100% of herbicidal efficacy or phytotoxicity) | 4 (90%-100% of herbicidal efficacy or phytotoxicity) | 3.3 | 4 (90%-100% of herbicidal efficacy or phytotoxicity) | 4 (90%-100% of herbicidal efficacy or phytotoxicity) | 4 (90%-100% of herbicidal efficacy or phytotoxicity) | 4 (90%-100% of herbicidal efficacy or phytotoxicity) | 4 (90%-100% of herbicidal efficacy or phytotoxicity)
CC(C)COC(=O)N(c1ccccc1CN1C(=O)OCC1C)S(=O)(=O)C(F)(F)F (centres unmarked) [1-4] | 2 (40%-69% of herbicidal efficacy or phytotoxicity) | 4 (90%-100% of herbicidal efficacy or phytotoxicity) | 10 | 4 (90%-100% of herbicidal efficacy or phytotoxicity) | 4 (90%-100% of herbicidal efficacy or phytotoxicity) | 4 (90%-100% of herbicidal efficacy or phytotoxicity) | 4 (90%-100% of herbicidal efficacy or phytotoxicity) | 4 (90%-100% of herbicidal efficacy or phytotoxicity)
CC1CN(Cc2ccccc2NS(=O)(=O)C(F)(F)F)C(=O)O1 (centres unmarked) [1-17] | 0 (0% of herbicidal efficacy or phytotoxicity) | 4 (90%-100% of herbicidal efficacy or phytotoxicity) | 10 | 4 (90%-100% of herbicidal efficacy or phytotoxicity) | 4 (90%-100% of herbicidal efficacy or phytotoxicity) | 4 (90%-100% of herbicidal efficacy or phytotoxicity) | 3 (70%-89% of herbicidal efficacy or phytotoxicity) | 4 (90%-100% of herbicidal efficacy or phytotoxicity)
CC(C)C1CN(Cc2ccccc2NS(=O)(=O)C(F)(F)F)C(=O)O1 (centres unmarked) [1-31] | 1 (1%-39% of herbicidal efficacy or phytotoxicity) | 4 (90%-100% of herbicidal efficacy or phytotoxicity) | ≧10 | 4 (90%-100% of herbicidal efficacy or phytotoxicity) | 4 (90%-100% of herbicidal efficacy or phytotoxicity) | 4 (90%-100% of herbicidal efficacy or phytotoxicity) | 4 (90%-100% of herbicidal efficacy or phytotoxicity) | 4 (90%-100% of herbicidal efficacy or phytotoxicity)
CC(C)COC(=O)N(c1ccccc1CN1CC(C(C)C)OC1=O)S(=O)(=O)C(F)(F)F (centres unmarked) [1-32] | 0 (0% of herbicidal efficacy or phytotoxicity) | 4 (90%-100% of herbicidal efficacy or phytotoxicity) | 10 | 4 (90%-100% of herbicidal efficacy or phytotoxicity) | 4 (90%-100% of herbicidal efficacy or phytotoxicity) | 4 (90%-100% of herbicidal efficacy or phytotoxicity) | 3 (70%-89% of herbicidal efficacy or phytotoxicity) | 4 (90%-100% of herbicidal efficacy or phytotoxicity)
CC(C)COC(=O)N(c1ccccc1CN1CC(CCl)OC1=O)S(=O)(=O)C(F)(F)F (centres unmarked) [1-40] | 0 (0% of herbicidal efficacy or phytotoxicity) | 4 (90%-100% of herbicidal efficacy or phytotoxicity) | 100 | 4 (90%-100% of herbicidal efficacy or phytotoxicity) | 4 (90%-100% of herbicidal efficacy or phytotoxicity) | 4 (90%-100% of herbicidal efficacy or phytotoxicity) | 4 (90%-100% of herbicidal efficacy or phytotoxicity) | 4 (90%-100% of herbicidal efficacy or phytotoxicity)
CC1(C)CN(Cc2ccccc2NS(=O)(=O)C(F)(F)F)C(=O)O1 [1-43] | 2 (40%-69% of herbicidal efficacy or phytotoxicity) | 4 (90%-100% of herbicidal efficacy or phytotoxicity) | 10 | 4 (90%-100% of herbicidal efficacy or phytotoxicity) | 4 (90%-100% of herbicidal efficacy or phytotoxicity) | 4 (90%-100% of herbicidal efficacy or phytotoxicity) | 4 (90%-100% of herbicidal efficacy or phytotoxicity) | 4 (90%-100% of herbicidal efficacy or phytotoxicity)

From patent US20080274892A1, “Novel Haloalkylsulfonanilide Derivative, Herbicide, and Method of Use Thereof” (priority 2005, published 2008)
